Results on five compounds are retold here after PMC7843452, “Novel Hybrids of Podophyllotoxin and Coumarin Inhibit the Growth and Migration of Human Oral Squamous Carcinoma Cells” (Frontiers in Chemistry, 2021).

Read-outs that look alike come from different tables or passages of the source.

Assay [1] deals with human renal tubular epithelial HK-2 cells. Description: CCK-8 assay on normal cells, HK-2. The conditions noted are these: read-out: IC50 (μM) HK-2. Type of assay: cell-based. The procedure:
(§1) The in vitro antiproliferative activities of target compounds were investigated against human oral squamous carcinoma HSC-2, SCC-9, and A253 cells and human renal tubular epithelial HK-2 cells by Cell Counting Kit-8 (CCK-8) assay. The HSC-2, SCC-9, and A253 cell lines were purchased from Cobioer Biosciences (Nanjing, China), and HK-2 cell line was from KeyGen Biotech (Nanjing, China). The cells were placed into 96-well plates. After 24 h, cells were treated with 0.1% DMSO or different doses of test compounds for 72 h at 37°C in a CO2 incubator. Subsequently, 100 μl of CCK-8 test solution was added and incubated for 3 h at 37°C. The absorbance value of each well was measured at 450 nm.
For orientation: Formazan colour is commonly taken as a measure of viable cells.

The subject of assay [2] is human oral squamous carcinoma HSC-2 cells. Description: CCK-8 antiproliferative assay, HSC-2. Type of assay: cell-based. The conditions noted are these: for IC50: read-out: IC50 (μM) HSC-2. On the procedure: as §1
In assay [3] the test system is human oral squamous carcinoma A253 cells. Description: CCK-8 antiproliferative assay, A253. Type of assay: cell-based. The conditions noted are these: for IC50: read-out: IC50 (μM) A253. On the procedure:
as §1

The subject of assay [4] is human oral squamous carcinoma SCC-9 cells. Description: CCK-8 antiproliferative assay, SCC-9. Type of assay: cell-based. The conditions noted are these: for IC50: read-out: IC50 (μM) SCC-9. The procedure: as §1
Another assay deals with MGC-803 cells. The arrangement: method as in Huang et al., 2017. The conditions noted are these: in vitro; ref Huang et al., 2017; cited from earlier work.
The subject of a further assay is NCI-H460 cells. Further details: method as in Huang et al., 2017. The following applies: in vitro; ref Huang et al., 2017; cited from earlier work.
Where [5] appears, read: Homo sapiens, HSC-2, CCK-8, 72 h, mean ± SD.
Where [6] appears, read: Homo sapiens, A253, CCK-8, 72 h, mean ± SD.
Setting [7] is: Homo sapiens, SCC-9, CCK-8, 72 h, mean ± SD.

On to `COc1cc([C@@H]2c3cc4c(cc3[C@@H](O[C@@H]3O[C@@H]5CO[C@@H](C)O[C@H]5[C@H](O)[C@H]3O)[C@H]3COC(=O)[C@H]23)OCO4)cc(OC)c1O` [Etoposide, etoposide], for which the IC50 (as a rule, the concentration at which inhibition is half-maximal) was found to be 3.04 ± 1.37 µM in assay [1] (Homo sapiens, HK-2, normal cells, CCK-8, 72 h, mean ± SD); 1.25 ± 0.467 µM in assay [2] (setting [5]); 0.95 ± 0.387 µM in assay [3] (setting [6]); 1.15 ± 0.308 µM in assay [4] (setting [7]).
Consider `O=c1ccc2ccc(O)cc2o1` [compound 8, 7-hydroxycoumarin], for which the “IC50 (μM) HSC-2” value in assay [2] (CCK-8, 72 h, mean ± SD) is given as “no antiproliferative effect”. Moreover, the IC50 in assay [2] (setting [5]), in assay [3] (setting [6]) and in assay [4] (setting [7]) was > 100 µM in each case. Further, the “IC50 (μM) A253” value in assay [3] (CCK-8, 72 h, mean ± SD) is on record as “no antiproliferative effect”. Besides, in assay [4] (CCK-8, 72 h, mean ± SD), the “IC50 (μM) SCC-9” value was “no antiproliferative effect”.
On to `O=c1[nH]cc(F)c(=O)[nH]1` [5-FU], for which the IC50 in assay [1] (normal cells, CCK-8, 72 h, mean ± SD) turned out to be 8.77 ± 1.04 µM; in assay [2] (CCK-8, 72 h, mean ± SD), 7.12 ± 0.87 µM; in assay [3] (CCK-8, 72 h, mean ± SD), 5.52 ± 0.199 µM; in assay [4] (CCK-8, 72 h, mean ± SD), 5.35 ± 0.784 µM.
For `COc1cc([C@@H]2c3cc4c(cc3[C@H](O)[C@H]3COC(=O)[C@H]23)OCO4)cc(OC)c1OC` [compound 1, Podophyllotoxin], the IC50 was determined as 0.04 ± 0.006 µM in assay [1] (Homo sapiens, HK-2, 72 h); 0.011 ± 0.003 µM in assay [2] (Homo sapiens, HSC-2, 72 h); 0.01 ± 0.001 µM in assay [3] (Homo sapiens, A253, 72 h); 0.009 ± 0.001 µM in assay [4] (Homo sapiens, SCC-9, 72 h).
As for `Cc1cc(=O)oc2c(CN3CCN(C(=O)Nc4ccc(Br)c(F)c4)CC3)c(O)ccc12` [compound 10], the IC50 with MGC-803 cells was 2.13 ± 0.75 µM; in the assay on NCI-H460 cells it was 1.86 ± 0.73 µM.
